Publication PMC12735872, “Development of ^18F/^11C-Labeled Pyrrolo-Pyridine/Pyrimidine LRRK2 Selective PET Radioligands” (Pharmaceuticals, 2025)
One block for each molecule: values may come before it.

Assays:
[1] = tested on: cynomolgus monkey brain; assay: In vivo PET imaging in cynomolgus monkeys; design: VT/fp: unit not given beside the values; VT: unit not given here
From the text: PET measurements were led using a high-resolution research tomograph (HRRT) from Siemens Molecular Imaging (Knoxville, TN, USA). List mode data were reconstructed using the ordinary Poisson-3D-ordered subset expectation maximization (OP-3D-OSEM) algorithm, with 10 repetitions and 16 subsets while modeling the point spread function (PSF). The in-plane resolution accomplished with OP-3D-OSEM and PSF was 1.5 mm full width at half maximum (FWHM) at the center of the field of view (FOV) and 2.4 mm at 10 cm off-center.
The study was approved by the Animal Ethics Committee of the Swedish Animal Welfare Agency and was performed according to “Guidelines for planning, conducting and documenting experimental research” (Dnr 5.2.18-4170/14 issued on 11 April 2014) of the KI as well as the “Guide for the Care and Use of Laboratory Animals” [26]. NHPs were supplied by the Astrid Fagraeus Laboratory (AFL) of the Swedish Institute for Infectious Disease Control (SMI), Solna, Sweden. Anesthesia was brought by intramuscular injection of ketamine hydrochloride (approximately 10 mg/kg) at AFL and continued with a mixture of sevoflurane (0–8.0%), oxygen, and medical air through endotracheal intubation at the KI PET center. The NHP head was immobilized using a homemade fixation device. Body temperature was maintained with a Bair Hugger model 505 (Arizant Healthcare, Eden Prairie, MN, USA) and monitored via an esophageal thermometer. ECG, heart rate, respiratory rate, blood pressure, and oxygen saturation were continuously examined throughout the experiments. The fluid balance was retained with continuous infusion of saline.
A 6 min transmission scan was performed before the injection of the radioligand using a single Cs-137 source. List mode data was acquired continuously for 93 min following intravenous administration of the radioligand. Images were reconstructed into 38 frames with varying intervals: […].
For all PET measurements, radioligands were administered via intravenous injection. Regions of interest (ROIs) were manually delineated on MRI images for each NHP, for the whole brain, cerebellum, caudate, putamen, thalamus, frontal cortex, temporal cortex, amygdala, posterior cingulate cortex, anterior cingulate cortex, hippocampus, occipital cortex, parietal cortex, ventral striatum, and insula. The summed PET images over the entire duration were co-registered with the individual NHP’s MRI image. After applying the co-registration parameters to the dynamic PET data, time–activity curves were generated for each brain region for every PET measurement. The standardized uptake value (SUV) was calculated for each brain region. The total distribution volume (VT) for all three radioligands were derived using one-tissue compartment (1-TC) and two-tissue compartment (2-TC) models.
On two separate occasions, PET measurements were performed after intravenous administration of GEN-7915 or PFE-360 with a slow infusion in one NHP (NHP2). The infusion lasted for 2 min, starting 30 min before PET scanning. The pretreatment formulations were prepared by dissolving it in DMSO (5%), Kolliphor EL (15%), and PBS (80%), and the pH of the final formulation was approximately 4.5–5.0. An automated blood sampling system (ABSS) measured continuous radioactivity for the first 3 min following the radioligand injection, while manual blood samples were taken at 4, 15, 30, 60, and 90 min post-injection to measure the radioactivity and metabolism.

[2] = Radiometabolite analysis in monkey plasma (gradient HPLC); type: in vivo, cynomolgus monkey; conditions: baseline PET
Procedure: The technique published earlier was utilized for the analysis of radiometabolites in NHP blood plasma. During the entire PET measurement, the percentage of the injected radioligand and its corresponding radioactive metabolites and radioactivity was measured with a reverse-phase HPLC system with UV absorbance detector (λ = 254 nm) and a radioactive detector. […] The blood samples were centrifuged at 4000 rpm for 2 min to separate plasma. From the centrifuged plasma, the resulting plasma was withdrawn and spiked with 1.4 times its volume of acetonitrile before being spun at 6000 rpm for 4 min. The supernatant, collected after the spun at 6000 rpm, was diluted with 3 mL of water, which was then injected into the HPLC system. The HPLC system was constructed with an Agilent 1200 series binary pump (Agilent, Santa Clara, CA, USA), a Rheodyne 7725i (Thermo Scientific, Waltham, MA, USA) manual injection valve, a 5.0 mL loop, and an Oyokoken S-2493Z radiation detector (Oyokoken, Tokyo, Japan) fitted with 50 mm lead shielding, which houses the detector. Chromatographic separation of the radiometabolites from the unchanged radioligand was performed via gradient elution on a semi-preparative reverse-phase ACE 5 µm C18 HL column (250 × 10 mm) using a mobile phase of acetonitrile (A) and ammonium formate 0.1 M (B). A flow rate of 5.0 mL/min was utilized according to the program 0–6.0 min: (A/B) 40:60 → 90:10 v/v; 6.0–10.0 min: (A/B) 90:10 (v/v). The radioactive peak corresponding to the parent radioligand was then integrated from the data output of the HPLC column. The area of this peak was calculated relative to the total area detected for all radioactive compounds. To evaluate the radioactivity recovery from the system, the measurement was taken from a 2 mL aliquot of the eluate taken from the HPLC column and measured against the total injected radioactivity.

[3] = ACC, 1-TC model, pretreatment GEN-7915 (40 mg/kg)
[4] = ACC, 1-TC model, pretreatment PFE-360 (0.5 mg/kg)
[5] = ACC, 2-TC model, pretreatment GEN-7915 (40 mg/kg)
[6] = ACC, 2-TC model, pretreatment PFE-360 (0.5 mg/kg)
[7] = AMY, 1-TC model, pretreatment GEN-7915 (40 mg/kg)
[8] = AMY, 1-TC model, pretreatment PFE-360 (0.5 mg/kg)
[9] = AMY, 2-TC model, pretreatment GEN-7915 (40 mg/kg)
[10] = AMY, 2-TC model, pretreatment PFE-360 (0.5 mg/kg)
[11] = CAU, 1-TC model, pretreatment GEN-7915 (40 mg/kg)
[12] = CAU, 1-TC model, pretreatment PFE-360 (0.5 mg/kg)
[13] = CAU, 2-TC model, pretreatment GEN-7915 (40 mg/kg)
[14] = CAU, 2-TC model, pretreatment PFE-360 (0.5 mg/kg)
[15] = CB, 1-TC model, pretreatment GEN-7915 (40 mg/kg)
[16] = CB, 1-TC model, pretreatment PFE-360 (0.5 mg/kg)
[17] = CB, 2-TC model, pretreatment GEN-7915 (40 mg/kg)
[18] = CB, 2-TC model, pretreatment PFE-360 (0.5 mg/kg)
[19] = FC, 1-TC model, pretreatment GEN-7915 (40 mg/kg)
[20] = FC, 1-TC model, pretreatment PFE-360 (0.5 mg/kg)
[21] = FC, 2-TC model, pretreatment GEN-7915 (40 mg/kg)
[22] = FC, 2-TC model, pretreatment PFE-360 (0.5 mg/kg)
[23] = PUT, 1-TC model, pretreatment GEN-7915 (40 mg/kg)
[24] = PUT, 1-TC model, pretreatment PFE-360 (0.5 mg/kg)
[25] = PUT, 2-TC model, pretreatment GEN-7915 (40 mg/kg)
[26] = PUT, 2-TC model, pretreatment PFE-360 (0.5 mg/kg)
[27] = THA, 1-TC model, pretreatment GEN-7915 (40 mg/kg)
[28] = THA, 1-TC model, pretreatment PFE-360 (0.5 mg/kg)
[29] = THA, 2-TC model, pretreatment GEN-7915 (40 mg/kg)
[30] = THA, 2-TC model, pretreatment PFE-360 (0.5 mg/kg)

- VT ([1]; ACC, 1-TC model, Baseline): 6.03
- VT/fp ([1]; ACC, 1-TC model, Baseline): 17.7
- VT [1, 3]: 8.50
- VT/fp [1, 3]: 20.9
- VT [1, 4]: 9.28
- VT/fp [1, 4]: 20.2
- VT ([1]; ACC, 2-TC model, Baseline): 6.04
- VT [1, 5]: 8.71
- VT/fp [1, 5]: 21.4
- VT [1, 6]: 9.39
- VT/fp [1, 6]: 20.4
- VT ([1]; AMY, 1-TC model, Baseline): 6.15
- VT/fp ([1]; AMY, 1-TC model, Baseline): 18.1
- VT [1, 7]: 7.29
- VT/fp [1, 7]: 17.9
- VT [1, 8]: 7.56
- VT/fp [1, 8]: 16.4
- VT ([1]; AMY, 2-TC model, Baseline): 6.23
- VT/fp ([1]; AMY, 2-TC model, Baseline): 18.3
- VT [1, 9]: 7.36
- VT/fp [1, 9]: 18.1
- VT [1, 10]: 7.78
- VT/fp [1, 10]: 16.9
- VT ([1]; CAU, 1-TC model, Baseline): 5.83
- VT/fp ([1]; CAU, 1-TC model, Baseline): 17.2
- VT [1, 11]: 7.78
- VT/fp [1, 11]: 19.1
- VT [1, 12]: 8.50
- VT/fp [1, 12]: 18.5
- VT ([1]; CAU, 2-TC model, Baseline): 5.87
- VT/fp ([1]; CAU, 2-TC model, Baseline): 17.3
- VT [1, 13]: 7.89
- VT/fp [1, 13]: 19.4
- VT [1, 14]: 8.50
- VT/fp [1, 14]: 18.5
- VT ([1]; CB, 1-TC model, Baseline): 4.13
- VT/fp ([1]; CB, 1-TC model, Baseline): 12.2
- VT [1, 15]: 5.03
- VT/fp [1, 15]: 12.3
- VT [1, 16]: 5.67
- VT/fp [1, 16]: 12.3
- VT ([1]; CB, 2-TC model, Baseline): 4.41
- VT/fp ([1]; CB, 2-TC model, Baseline): 13.0
- VT [1, 17]: 5.08
- VT/fp [1, 17]: 12.5
- VT [1, 18]: 5.69
- VT/fp [1, 18]: 12.4
- VT ([1]; FC, 1-TC model, Baseline): 5.26
- VT/fp ([1]; FC, 1-TC model, Baseline): 15.5
- VT [1, 19]: 6.53
- VT/fp [1, 19]: 16.0
- VT [1, 20]: 7.68
- VT/fp [1, 20]: 16.7
- VT ([1]; FC, 2-TC model, Baseline): 5.26
- VT/fp ([1]; FC, 2-TC model, Baseline): 15.5
- VT [1, 21]: 6.74
- VT/fp [1, 21]: 16.5
- VT [1, 22]: 7.72
- VT/fp [1, 22]: 16.8
- Brain uptake ([1]; PET, iv, baseline): > 3 %ID
- Brain washout ([1]; PET, iv, baseline): rapid washout
- Regional distribution of brain uptake ([1]; PET, iv, baseline): regional differences in uptake
- VT ([1]; PUT, 1-TC model, Baseline): 5.71
- VT/fp ([1]; PUT, 1-TC model, Baseline): 16.8
- VT [1, 23]: 7.56
- VT/fp [1, 23]: 18.6
- VT [1, 24]: 8.25
- VT/fp [1, 24]: 17.9
- VT ([1]; PUT, 2-TC model, Baseline): 5.89
- VT/fp ([1]; PUT, 2-TC model, Baseline): 17.3
- VT [1, 25]: 7.71
- VT/fp [1, 25]: 18.9
- VT [1, 26]: 8.25
- VT/fp [1, 26]: 17.9
- VT ([1]; THA, 1-TC model, Baseline): 4.80
- VT/fp ([1]; THA, 1-TC model, Baseline): 14.1
- VT [1, 27]: 6.05
- VT/fp [1, 27]: 14.9
- VT [1, 28]: 6.68
- VT/fp [1, 28]: 14.5
- VT ([1]; THA, 2-TC model, Baseline): 4.95
- VT/fp ([1]; THA, 2-TC model, Baseline): 14.6
- VT [1, 29]: 6.18
- VT/fp [1, 29]: 15.2
- VT [1, 30]: 6.68
- VT/fp [1, 30]: 14.5
- Parent compound, share of eluted plasma radioactivity ([2]; at 5 min): over 90%
- Parent compound, share of eluted plasma radioactivity ([2]; at 90 min): around 10%
SMILES: C[C@@H]1C[C@@H]([18F])CN1c1c(C#N)c2c(N)nccc2n1C [[^18F]1, 4-Amino-2-((2R,4R)-4-[^18F]fluoro-2-methylpyrrolidin-1-yl)-1-methyl-1H-pyrrolo[3,2-c]pyridine-3-carbonitrile]

- Brain uptake at peak ([1]; PET, iv, baseline): 3.8–4.4 %ID
- Brain washout ([1]; PET, iv, baseline): fast washout
- Time to reach half the peak brain level ([1]; PET, iv, baseline): ≤ 20 min
- Parent compound, share of eluted plasma radioactivity ([2]; at 5 min): over 90%
- Parent compound, share of eluted plasma radioactivity ([2]; at 90 min): around 10%
SMILES: C[C@@H]1C[C@@H]([18F])CN1c1c(C#N)c2c(N)ncnc2n1C [[^18F]2, 4-Amino-6-((2R,4R)-4-[^18F]fluoro-2-methyl Pyrrolidin-1-yl)-7-methyl-7H-pyrrolo[2,3-d]pyrimidine-5-carbonitrile]
- Regional distribution of brain uptake ([1]; PET, iv, baseline): relatively uniform distribution across all the brain regions
